Source: patent US20220088016A1, “CANCER TREATMENT USING MULTI-TARGETED KINASE INHIBITOR IN COMBINATION OF PROTEIN KINASE BIOMARKERS” (ZHEJIANG CROWNMAB BIOTECH CO. LTD., priority 2019, published 2022)

What was measured:
EPHB1 = EPHB1 (Homo sapiens, UniProt P54762); assay: Kinase profiling; format: binding; details: read-out: % Ctrl @ 1000 nM
TBK1 = TBK1 (Homo sapiens, UniProt Q9UHD2); assay: Kinase profiling; format: binding; details: read-out: % Ctrl @ 1000 nM
RIOK1 = RIOK1 (Homo sapiens, UniProt Q9BRS2); assay: Kinase profiling; format: binding; details: read-out: % Ctrl @ 1000 nM
MET (M1250T) = molecular target: T1, MET (M1250T) (Homo sapiens, UniProt P08581, M1250T); assay: Kinase profiling; format: binding; details: read-out: % Ctrl @ 1000 nM
T1 construct: T7 phage fusion (stated for most kinases of the panel only); made in house; host or cells: T7 phage in E. coli (BL21-derived) or HEK-293 cells

AURKA = AURKA (Homo sapiens, UniProt O14965); assay: Kinase profiling; format: binding; details: read-out: % Ctrl @ 1000 nM
FGFR3 = FGFR3 (Homo sapiens, UniProt P22607); assay: Kinase profiling; format: binding; details: read-out: % Ctrl @ 1000 nM
BRSK2 = BRSK2 (Homo sapiens, UniProt Q8IWQ3); assay: Kinase profiling; format: binding; details: read-out: % Ctrl @ 1000 nM
NEK7 = molecular target: T2, NEK7 (Homo sapiens, UniProt Q8TDX7); assay: Kinase profiling; format: binding; details: read-out: % Ctrl @ 1000 nM
T2 construct: T7 phage fusion (said for most assays); made in house

[1] = molecular target: ABL1 (M351T)-phosphorylated (Homo sapiens, UniProt P00519, M351T); assay: Kinase profiling; format: binding; details: read-out: % Ctrl @ 1000 nM
EGFR (L861Q) = EGFR (L861Q) (Homo sapiens, UniProt P00533, L861Q); assay: Kinase profiling; format: binding; details: read-out: % Ctrl @ 1000 nM
PDGFRB = PDGFRB (Homo sapiens, UniProt P09619); assay: Kinase profiling; format: binding; details: read-out: % Ctrl @ 1000 nM
TNNI3K = TNNI3K (Homo sapiens, UniProt Q59H18); assay: Kinase profiling; format: binding; details: read-out: % Ctrl @ 1000 nM
CLK3 = CLK3 (Homo sapiens, UniProt P49761); assay: Kinase profiling; format: binding; details: read-out: % Ctrl @ 1000 nM
EGFR = EGFR (Homo sapiens, UniProt P00533); assay: Kinase profiling; format: binding; details: read-out: % Ctrl @ 1000 nM
CSK (h) = molecular target: T3, CSK (h) (Homo sapiens, UniProt P41240); assay: Kinase IC50 (Eurofins KinaseProfiler); format: biochemical
T3 construct: purchased Eurofins (KinaseProfiler service)
Protocol: (§1) CBT-102 were tested against each of the selected kinases using the Eurofins standard KinaseProfder assays and following the relevant standard operating procedures. The required volume of the 50× stock of test compound (CBT-102) was added to the assay well, before a reaction mix containing the enzyme and substrate was added. The reaction was initiated by the addition of ATP at the selected concentration. There was no pre-incubation of the compound with the enzyme/substrate mix prior to ATP addition.
(§2) Data are handled using a custom-built in-house analysis software. Results are expressed as kinase activity remaining, as a percentage of the DMSO control. This is calculated using the following formula: […]
(§3) For IC50 determinations, data are analyzed using XLFit version 5.3 (ID Business Solutions).

IRAK4 (h) = molecular target: T4, IRAK4 (h) (Homo sapiens, UniProt Q9NWZ3); assay: Kinase IC50 (Eurofins KinaseProfiler); format: biochemical
T4 construct: purchased Eurofins (KinaseProfiler service)
Protocol: as §1, §2, §3

LOK (h) = molecular target: T5, LOK (h) (Homo sapiens, UniProt O94804); assay: Kinase IC50 (Eurofins KinaseProfiler); format: biochemical
T5 construct: purchased Eurofins (KinaseProfiler service)
Protocol: as §1, §2, §3

cKit (V654A) (h) = molecular target: T6, cKit (V654A) (h) (Homo sapiens, UniProt P10721, V654A); assay: Kinase IC50 (Eurofins KinaseProfiler); format: biochemical
T6 construct: purchased Eurofins (KinaseProfiler service)
Protocol: as §1, §2, §3

DDR1 (h) = molecular target: T7, DDR1 (h) (Homo sapiens, UniProt Q08345); assay: Kinase IC50 (Eurofins KinaseProfiler); format: biochemical
T7 construct: purchased Eurofins (KinaseProfiler service)
Protocol: as §1, §2, §3

EphB3 (h) = molecular target: T8, EphB3 (h) (Homo sapiens, UniProt P54753); assay: Kinase IC50 (Eurofins KinaseProfiler); format: biochemical
T8 construct: purchased Eurofins (KinaseProfiler service)
Protocol: as §1, §2, §3

B-Raf (V599E) (h) = molecular target: T9, B-Raf (V599E) (h) (Homo sapiens, UniProt P15056, V600E); assay: Kinase IC50 (Eurofins KinaseProfiler); format: biochemical
T9 construct: purchased Eurofins
Protocol: as §1, §2, §3

CDC2L5 = CDC2L5 (Homo sapiens, UniProt Q14004); assay: Kinase profiling; format: binding; details: read-out: % Ctrl @ 1000 nM
PRKD2 = PRKD2 (Homo sapiens, UniProt Q9BZL6); assay: Kinase profiling; format: binding; details: read-out: % Ctrl @ 1000 nM
CHEK1 = CHEK1 (Homo sapiens, UniProt O14757); assay: Kinase profiling; format: binding; details: read-out: % Ctrl @ 1000 nM
ULK2 = ULK2 (Homo sapiens, UniProt Q8IYT8); assay: Kinase profiling; format: binding; details: read-out: % Ctrl @ 1000 nM
GRK4 = GRK4 (Homo sapiens, UniProt P32298); assay: Kinase profiling; format: binding; details: read-out: % Ctrl @ 1000 nM
SNARK = SNARK (Homo sapiens, UniProt Q9H093); assay: Kinase profiling; format: binding; details: read-out: % Ctrl @ 1000 nM
[2] = molecular target: ABL1 (F317L)-phosphorylated (Homo sapiens, UniProt P00519, F317L); assay: Kinase profiling; format: binding; details: read-out: % Ctrl @ 1000 nM
CLK4 = CLK4 (Homo sapiens, UniProt Q9HAZ1); assay: Kinase profiling; format: binding; details: read-out: % Ctrl @ 1000 nM
DCAMKL2 = DCAMKL2 (Homo sapiens, UniProt Q8N568); assay: Kinase profiling; format: binding; details: read-out: % Ctrl @ 1000 nM
AXL = AXL (Homo sapiens, UniProt P30530); assay: Kinase profiling; format: binding; details: read-out: % Ctrl @ 1000 nM
MAK = MAK (Homo sapiens, UniProt P20794); assay: Kinase profiling; format: binding; details: read-out: % Ctrl @ 1000 nM
HIPK1 = HIPK1 (Homo sapiens, UniProt Q86Z02); assay: Kinase profiling; format: binding; details: read-out: % Ctrl @ 1000 nM
MYLK4 = molecular target: T10, MYLK4 (Homo sapiens, UniProt Q86YV6); assay: Kinase profiling; format: binding; details: read-out: % Ctrl @ 1000 nM
T10 construct: T7 phage fusion (said for most assays); made in house

EGFR (L858R) = EGFR (L858R) (Homo sapiens, UniProt P00533, L858R); assay: Kinase profiling; format: binding; details: read-out: % Ctrl @ 1000 nM

T7 sequence (Q08345 19-913): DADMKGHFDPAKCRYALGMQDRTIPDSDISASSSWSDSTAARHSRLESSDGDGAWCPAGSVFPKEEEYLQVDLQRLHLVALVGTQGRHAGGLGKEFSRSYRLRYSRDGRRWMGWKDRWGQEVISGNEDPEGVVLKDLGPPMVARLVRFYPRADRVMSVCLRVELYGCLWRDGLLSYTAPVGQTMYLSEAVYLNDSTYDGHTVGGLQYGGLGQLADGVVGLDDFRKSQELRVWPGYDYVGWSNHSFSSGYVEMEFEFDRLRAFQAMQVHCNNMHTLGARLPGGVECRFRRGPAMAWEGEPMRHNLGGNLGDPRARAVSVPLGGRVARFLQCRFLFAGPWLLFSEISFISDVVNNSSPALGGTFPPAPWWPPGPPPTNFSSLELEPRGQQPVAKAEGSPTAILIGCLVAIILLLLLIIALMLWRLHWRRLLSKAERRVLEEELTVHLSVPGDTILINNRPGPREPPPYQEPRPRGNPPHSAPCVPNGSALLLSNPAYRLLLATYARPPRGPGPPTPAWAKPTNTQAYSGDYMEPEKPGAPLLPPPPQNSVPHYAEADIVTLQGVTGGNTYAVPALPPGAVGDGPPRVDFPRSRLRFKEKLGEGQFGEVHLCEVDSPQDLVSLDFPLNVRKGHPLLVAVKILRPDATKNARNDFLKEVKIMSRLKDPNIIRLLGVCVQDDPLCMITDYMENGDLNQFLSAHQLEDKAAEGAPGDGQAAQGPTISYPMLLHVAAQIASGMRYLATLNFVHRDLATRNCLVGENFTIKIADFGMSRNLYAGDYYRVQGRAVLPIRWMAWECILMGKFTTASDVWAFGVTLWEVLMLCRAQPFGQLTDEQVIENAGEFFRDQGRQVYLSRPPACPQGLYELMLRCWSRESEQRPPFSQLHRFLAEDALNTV
Sequence of AXL (P30530 26-894): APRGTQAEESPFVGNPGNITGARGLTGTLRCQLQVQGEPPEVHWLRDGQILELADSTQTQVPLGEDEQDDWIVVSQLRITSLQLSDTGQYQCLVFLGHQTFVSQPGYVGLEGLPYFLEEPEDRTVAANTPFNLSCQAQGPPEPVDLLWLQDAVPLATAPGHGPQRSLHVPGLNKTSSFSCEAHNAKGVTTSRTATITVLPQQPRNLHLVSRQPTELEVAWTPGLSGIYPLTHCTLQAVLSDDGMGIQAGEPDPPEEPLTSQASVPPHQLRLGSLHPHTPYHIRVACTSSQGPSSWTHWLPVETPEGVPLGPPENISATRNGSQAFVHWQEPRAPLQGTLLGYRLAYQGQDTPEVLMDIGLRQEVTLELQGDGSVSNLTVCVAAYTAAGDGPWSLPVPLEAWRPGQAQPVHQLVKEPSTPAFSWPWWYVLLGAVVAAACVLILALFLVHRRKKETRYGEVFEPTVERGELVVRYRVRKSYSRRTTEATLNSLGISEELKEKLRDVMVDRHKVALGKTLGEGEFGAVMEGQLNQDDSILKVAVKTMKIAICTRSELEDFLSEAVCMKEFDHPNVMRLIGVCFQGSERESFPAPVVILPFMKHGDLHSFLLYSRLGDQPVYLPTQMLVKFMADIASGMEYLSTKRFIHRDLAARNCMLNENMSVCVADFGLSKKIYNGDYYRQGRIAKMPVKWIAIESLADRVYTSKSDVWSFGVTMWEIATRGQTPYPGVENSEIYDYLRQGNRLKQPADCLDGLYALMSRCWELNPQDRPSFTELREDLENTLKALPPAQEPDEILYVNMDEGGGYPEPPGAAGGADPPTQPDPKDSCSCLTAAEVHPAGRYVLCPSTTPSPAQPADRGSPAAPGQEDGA
Sequence of CLK4 (Q9HAZ1 whole entry): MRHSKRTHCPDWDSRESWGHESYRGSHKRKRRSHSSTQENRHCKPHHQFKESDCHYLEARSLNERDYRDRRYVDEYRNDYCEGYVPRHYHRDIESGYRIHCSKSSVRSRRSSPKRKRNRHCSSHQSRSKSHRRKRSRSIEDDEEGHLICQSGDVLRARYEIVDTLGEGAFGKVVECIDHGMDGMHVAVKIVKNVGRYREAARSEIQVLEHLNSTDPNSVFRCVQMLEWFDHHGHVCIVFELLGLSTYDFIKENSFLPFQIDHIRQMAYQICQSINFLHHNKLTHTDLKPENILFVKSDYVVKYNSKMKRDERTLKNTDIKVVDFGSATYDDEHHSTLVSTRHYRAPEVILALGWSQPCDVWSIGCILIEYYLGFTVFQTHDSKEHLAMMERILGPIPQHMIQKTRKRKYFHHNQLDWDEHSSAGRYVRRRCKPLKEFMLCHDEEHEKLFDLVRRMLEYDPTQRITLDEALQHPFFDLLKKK
Sequence of DCAMKL2 (Q8N568 whole entry): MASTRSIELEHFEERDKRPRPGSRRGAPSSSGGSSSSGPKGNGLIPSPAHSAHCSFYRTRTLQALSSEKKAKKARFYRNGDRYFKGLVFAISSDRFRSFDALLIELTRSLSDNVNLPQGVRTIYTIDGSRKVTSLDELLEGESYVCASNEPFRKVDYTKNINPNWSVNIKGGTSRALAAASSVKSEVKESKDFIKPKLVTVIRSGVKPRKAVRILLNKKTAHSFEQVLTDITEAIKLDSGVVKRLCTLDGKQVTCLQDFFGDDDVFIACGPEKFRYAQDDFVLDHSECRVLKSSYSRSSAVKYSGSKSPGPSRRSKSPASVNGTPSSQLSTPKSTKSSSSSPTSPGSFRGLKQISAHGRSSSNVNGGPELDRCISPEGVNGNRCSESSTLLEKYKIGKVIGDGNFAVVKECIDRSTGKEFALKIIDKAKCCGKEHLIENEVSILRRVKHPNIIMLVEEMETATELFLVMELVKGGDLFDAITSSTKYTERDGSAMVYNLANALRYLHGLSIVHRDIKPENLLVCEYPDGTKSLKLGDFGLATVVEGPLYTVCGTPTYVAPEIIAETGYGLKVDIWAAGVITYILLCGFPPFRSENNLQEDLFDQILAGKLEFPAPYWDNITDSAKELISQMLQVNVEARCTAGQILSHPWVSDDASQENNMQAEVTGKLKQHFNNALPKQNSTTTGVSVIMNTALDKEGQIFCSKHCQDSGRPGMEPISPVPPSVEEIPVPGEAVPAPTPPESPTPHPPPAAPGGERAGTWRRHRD
T5 sequence (O94804 whole entry): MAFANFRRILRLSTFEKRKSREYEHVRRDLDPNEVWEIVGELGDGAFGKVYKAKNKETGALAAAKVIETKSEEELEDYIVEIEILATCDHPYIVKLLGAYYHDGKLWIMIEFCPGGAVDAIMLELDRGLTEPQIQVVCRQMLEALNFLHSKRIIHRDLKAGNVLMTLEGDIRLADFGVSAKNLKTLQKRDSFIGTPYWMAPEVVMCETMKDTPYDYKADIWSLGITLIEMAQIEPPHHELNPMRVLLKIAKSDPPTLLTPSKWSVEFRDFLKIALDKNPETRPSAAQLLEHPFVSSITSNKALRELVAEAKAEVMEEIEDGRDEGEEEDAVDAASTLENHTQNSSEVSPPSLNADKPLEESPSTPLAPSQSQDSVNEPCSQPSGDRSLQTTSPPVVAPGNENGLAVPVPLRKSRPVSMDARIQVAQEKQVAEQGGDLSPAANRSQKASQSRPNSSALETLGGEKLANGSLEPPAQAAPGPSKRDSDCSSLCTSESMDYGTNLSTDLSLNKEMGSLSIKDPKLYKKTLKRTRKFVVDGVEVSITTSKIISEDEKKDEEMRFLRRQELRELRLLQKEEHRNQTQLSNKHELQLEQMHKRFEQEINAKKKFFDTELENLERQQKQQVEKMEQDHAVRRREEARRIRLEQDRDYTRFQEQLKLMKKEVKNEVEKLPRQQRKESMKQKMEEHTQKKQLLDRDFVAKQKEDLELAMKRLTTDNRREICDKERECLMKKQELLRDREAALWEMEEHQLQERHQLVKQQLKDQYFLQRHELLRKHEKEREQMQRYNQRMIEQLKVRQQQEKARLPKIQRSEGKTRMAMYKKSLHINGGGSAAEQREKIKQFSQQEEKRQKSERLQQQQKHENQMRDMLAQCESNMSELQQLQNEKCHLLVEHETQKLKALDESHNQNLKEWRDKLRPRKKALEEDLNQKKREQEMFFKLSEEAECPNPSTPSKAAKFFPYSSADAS
Sequence of ULK2 (Q8IYT8 whole entry): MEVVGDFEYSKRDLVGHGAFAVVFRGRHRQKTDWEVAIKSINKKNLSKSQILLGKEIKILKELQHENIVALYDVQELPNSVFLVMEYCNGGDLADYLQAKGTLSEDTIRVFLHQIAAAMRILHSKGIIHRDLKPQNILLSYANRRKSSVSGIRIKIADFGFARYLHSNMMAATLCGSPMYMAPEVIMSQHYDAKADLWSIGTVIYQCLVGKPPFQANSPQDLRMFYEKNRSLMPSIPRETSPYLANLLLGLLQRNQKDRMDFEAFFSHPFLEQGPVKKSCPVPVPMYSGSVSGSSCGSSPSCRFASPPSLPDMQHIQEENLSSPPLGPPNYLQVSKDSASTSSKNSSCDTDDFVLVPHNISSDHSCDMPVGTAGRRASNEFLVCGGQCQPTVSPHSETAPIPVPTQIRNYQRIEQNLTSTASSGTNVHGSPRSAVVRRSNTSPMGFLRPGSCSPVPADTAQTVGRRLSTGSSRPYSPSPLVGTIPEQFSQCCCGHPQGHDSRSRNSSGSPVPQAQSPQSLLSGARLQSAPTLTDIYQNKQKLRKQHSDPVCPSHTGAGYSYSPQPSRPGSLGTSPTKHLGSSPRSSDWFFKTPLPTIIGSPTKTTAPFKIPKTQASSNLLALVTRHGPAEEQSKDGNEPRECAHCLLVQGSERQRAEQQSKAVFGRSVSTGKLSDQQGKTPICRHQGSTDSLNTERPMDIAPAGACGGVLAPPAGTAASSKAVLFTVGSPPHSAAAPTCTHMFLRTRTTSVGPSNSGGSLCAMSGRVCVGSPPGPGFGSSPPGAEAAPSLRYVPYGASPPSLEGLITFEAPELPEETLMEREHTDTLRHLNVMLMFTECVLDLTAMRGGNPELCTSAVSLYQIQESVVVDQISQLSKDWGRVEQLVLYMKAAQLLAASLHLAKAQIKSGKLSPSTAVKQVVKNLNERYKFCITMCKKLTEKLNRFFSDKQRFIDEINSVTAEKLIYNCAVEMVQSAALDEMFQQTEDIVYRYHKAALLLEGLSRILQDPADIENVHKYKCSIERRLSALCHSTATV

Cc1cc(Oc2cc(NC(=O)C3CC3)ncn2)ccc1NC(=O)Nc1ccc(Cl)c(C(F)(F)F)c1 [CBT-102]
remaining activity at 1 µM (EPHB1): 38%
remaining activity at 1 µM (TBK1): 98%
remaining activity at 1 µM (RIOK1): 54%
remaining activity at 1 µM (MET (M1250T)): 84%
remaining activity at 1 µM (AURKA): 86%
remaining activity at 1 µM (FGFR3): 87%
remaining activity at 1 µM (BRSK2): 100%
remaining activity at 1 µM (NEK7): 88%
remaining activity at 1 µM [1]: 65%
remaining activity at 1 µM (EGFR (L861Q)): 56%
remaining activity at 1 µM (PDGFRB): 0%
remaining activity at 1 µM (TNNI3K): 31%
remaining activity at 1 µM (CLK3): 100%
remaining activity at 1 µM (EGFR): 76%
IC50 (CSK (h)): > 10000 nM
IC50 (IRAK4 (h)): > 10000 nM
IC50 (LOK (h)): 1090 nM
IC50 (cKit (V654A) (h)): 278 nM
IC50 (DDR1 (h)): 34 nM
IC50 (EphB3 (h)): > 10000 nM
IC50 (B-Raf (V599E) (h)): 115 nM
remaining activity at 1 µM (CDC2L5): 73%
remaining activity at 1 µM (PRKD2): 100%
remaining activity at 1 µM (CHEK1): 100%
remaining activity at 1 µM (ULK2): 98%
remaining activity at 1 µM (GRK4): 100%
remaining activity at 1 µM (SNARK): 100%
remaining activity at 1 µM [2]: 52%
remaining activity at 1 µM (CLK4): 95%
remaining activity at 1 µM (DCAMKL2): 95%
remaining activity at 1 µM (AXL): 56%
remaining activity at 1 µM (MAK): 62%
remaining activity at 1 µM (HIPK1): 96%
remaining activity at 1 µM (MYLK4): 100%
remaining activity at 1 µM (EGFR (L858R)): 87%
